Reference: patent US7375058B2, “Herbicidal mixtures based on 3-phenyluracils” (priority 2002, dated 2008)
Where a name gives a salt, the structure may show the parent alone.

How the values were obtained:
SETFA = assay: Greenhouse post-emergence herbicidal action against SETFA; assay type: in vivo, Setaria faberii
Excerpt: (§1) For the post-emergence treatment, the test plants were first grown to a height of 3 to 20 cm, depending on the plant habit, and only then treated. Here, the herbicidal compositions were suspended or emulsified in water as distribution medium and sprayed using finely distributing nozzles
(§2) The respective components A and B and/or C were formulated as 10% by weight strength emulsion concentrate and introduced to the spray liquor with the amount of solvent system used for applying the active compound. In the examples, the solvent used was water.
(§3) The test period extended over 21 days. During this time, the plants were tended, and their response to the treatments with active compound was evaluated.
(§4) The evaluation for the damage caused by the chemical compositions was carried out using a scale from 0 to 100%, compared to the untreated control plants. Here, 0 means no damage and 100 means complete destruction of the plants.
(§5) In the examples below, the value E which is to be expected if the activity of the individual compounds is just additive was calculated using the method of S. R. Colby (1967) “Calculating synergistic and antagonistic responses of herbicide combinations”, Weeds 15, p. 22 ff. E=X+Y−([…]) where • X=effect in percent using active compound A at an application rate a; • Y=effect in percent using active compound B at an application rate b; • E=expected effect (in %) of A+B at application rates a+b.
(§6) If the observed effect is higher than the value E calculated according to Colby, a synergistic effect is present.

COMBE = assay: Greenhouse post-emergence herbicidal action against COMBE; assay type: in vivo, Commelina benghalensis
Excerpt: as §1, §2, §3, §4, §5, §6

BRAPL = assay: Greenhouse post-emergence herbicidal action against BRAPL; assay type: in vivo, Brachiaria plantaginea
Excerpt: as §1, §2, §3, §4, §5, §6

ALOMY = assay: Greenhouse post-emergence herbicidal action against ALOMY; assay type: in vivo, Alopecurus myosuroides; conditions: 21 days
Excerpt: as §1, §2, §3, §4, §5, §6

ECHCG = assay: Greenhouse post-emergence herbicidal action against ECHCG; assay type: in vivo, Echinochloa crus-galli
Excerpt: as §1, §2, §3, §4, §5, §6

BIDPI = assay: Greenhouse post-emergence herbicidal action against BIDPI; assay type: in vivo, Bidens pilosa
Excerpt: as §1, §2, §3, §4, §5, §6

ABUTH = assay: Greenhouse post-emergence herbicidal action against ABUTH; assay type: in vivo, Abutilon theophrasti
Excerpt: as §1, §2, §3, §4, §5, §6

GALAP = assay: Greenhouse post-emergence herbicidal action against GALAP; assay type: in vivo, Galium aparine
Excerpt: as §1, §2, §3, §4, §5, §6

POLPE = assay: Greenhouse post-emergence herbicidal action against POLPE; assay type: in vivo, Polygonum persicaria; conditions: 21 days
Excerpt: as §1, §2, §3, §4, §5, §6

AMARE = assay: Greenhouse post-emergence herbicidal action against AMARE; assay type: in vivo, Amaranthus retroflexus
Excerpt: as §1, §2, §3, §4, §5, §6

[1] = I.14 0.49 g/ha and/or b10.3 62.5 g/ha
[2] = I.14 0.49 g/ha and/or b10.3 + c.2 62.5 + 3.13 g/ha
[3] = I.14 0.49 g/ha and/or b11.1 62.5 g/ha
[4] = I.14 0.98 g/ha and/or b10.3 125 g/ha
[5] = I.14 0.98 g/ha and/or b10.3 + c.2 125 + 6.25 g/ha
[6] = I.14 0.98 g/ha and/or b11.1 125 g/ha
[7] = I.14 0.49 g/ha and/or b13.3 62.5 g/ha
[8] = I.14 0.98 g/ha and/or b13.3 125 g/ha
[9] = I.1 0.49 g/ha and/or b14.1 7.81 g/ha
[10] = I.1 0.98 g/ha and/or b14.1 15.63 g/ha

How did the “Herbicidal action against SETFA found” value (SETFA; [1]) turn out when `CC(C)CN(C)S(=O)(=O)NC(=O)c1cc(-n2c(=O)cc(C(F)(F)F)n(N)c2=O)c(F)cc1Cl` [I.14] was run?
The value was 20%.

And the “Herbicidal action against SETFA found” value (SETFA; [2])?
Its value is 20%.

And the “Herbicidal action against SETFA found” value (SETFA; [3])?
Its value is 20%.

And the “Herbicidal action against SETFA found” value (SETFA; [4])?
Its value is 25%.

What about the “Herbicidal action against SETFA found” value (SETFA; [5]) of the same compound?
The value was 25%.

What about the “Herbicidal action against SETFA found” value (SETFA; [6]) of the same compound?
The value was 25%.

And the “Herbicidal action against COMBE found” value (COMBE; I.14 1.95 g/ha and/or b.15.1 125 g/ha)?
Its value is 0%.

And the “Herbicidal action against COMBE found” value (COMBE; I.14 3.91 g/ha and/or b.15.1 250 g/ha)?
The value was 40%.

And the “Herbicidal action against BRAPL found” value (BRAPL; 21 days, application rate g/ha: I.14 0.49, b2.3 0.98)?
Its value is 0%.

What about the “Herbicidal action against BRAPL found” value (BRAPL; 21 days, application rate g/ha: I.14 0.98, b2.3 1.95) of the same compound?
Its value is 0%.

And the “Herbicidal action against BRAPL found” value (BRAPL; [7])?
The value was 10%.

What about the “Herbicidal action against BRAPL found” value (BRAPL; [8]) of the same compound?
Its value is 15%.

What about the “Herbicidal action against ALOMY found” value (ALOMY; application rate g/ha: I.14 0.49, b2.3 0.98) of the same compound?
The value was 0%.

What about the “Herbicidal action against ALOMY found” value (ALOMY; application rate g/ha: I.14 0.98, b2.3 1.95) of the same compound?
Its value is 0%.

What about the “Herbicidal action against ECHCG found” value (ECHCG; I.14 1.95 g/ha and/or b13.2 125 g/ha) of the same compound?
Its value is 40%.

And the “Herbicidal action against ECHCG found” value (ECHCG; I.14 3.91 g/ha and/or b13.2 250 g/ha)?
Its value is 70%.

What about the “Herbicidal action against BIDPI found” value (BIDPI; 21 days, application rate g/ha: I.14 1.95, b10.2 250) of the same compound?
The value was 40%.

What about the “Herbicidal action against BIDPI found” value (BIDPI; 21 days, application rate g/ha: I.14 3.91, b10.2 500) of the same compound?
Its value is 85%.

And the “Herbicidal action against ABUTH found” value (ABUTH; [7])?
Its value is 0%.

And the “Herbicidal action against ABUTH found” value (ABUTH; [8])?
The value was 20%.

What about the “Herbicidal action against GALAP found” value (GALAP; [1]) of the same compound?
Its value is 0%.

What about the “Herbicidal action against GALAP found” value (GALAP; [2]) of the same compound?
Its value is 0%.

And the “Herbicidal action against GALAP found” value (GALAP; [3])?
The value was 0%.

And the “Herbicidal action against GALAP found” value (GALAP; [4])?
The value was 25%.

What about the “Herbicidal action against GALAP found” value (GALAP; [5]) of the same compound?
Its value is 25%.

And the “Herbicidal action against GALAP found” value (GALAP; [6])?
Its value is 25%.

Which results are given for `CNC.C[C@@H](Oc1ccc(Cl)cc1Cl)C(=O)O` [b13.1, dichlorprop-P dimethylammonium salt, reference compound]?
Herbicidal action against POLPE found (POLPE; application rate g/ha: I.7 1.95, b13.1 500): 30%; Herbicidal action against POLPE found (POLPE; application rate g/ha: I.7 3.91, b13.1 1000): 30%; Herbicidal action against COMBE found (COMBE; 21 days, application rate g/ha: I.7 1.95, b13.1 500): 40%; Herbicidal action against COMBE found (COMBE; 21 days, application rate g/ha: I.7 3.91, b13.1 1000): 75%

`C/C(=N\NC(=O)Nc1cc(F)cc(F)c1)c1ncccc1C(=O)O` [b14.1, diflufenzopyr sodium salt, reference compound] was tested. Which “Herbicidal action against AMARE found” value (AMARE; [9]) did it give?
Its value is 0%.

And the “Herbicidal action against AMARE found” value (AMARE; [10])?
The value was 0%.

What about the “Herbicidal action against BIDPI found” value (BIDPI; [9]) of the same compound?
The value was 20%.

What about the “Herbicidal action against BIDPI found” value (BIDPI; [10]) of the same compound?
Its value is 30%.
